Results on five compounds are retold here after US20040204596A1, “Method for the preparation of unsaturated hydroxy fatty acids and their esters, their use in pharmaceutical and/or cosmetic preparations” (Pierre Potier, priority 2001, published 2004).

Molecules are shown by their SMILES. Several values for one entry are separate records, joined by “and”; a condition that tells them apart may be missing. Identical values can stand only once.

Assay [1] has as its system cutaneous 5-alpha-reductase. Nature of the assay: Inhibition of cutaneous 5-alpha-reductase activity. In kind it is biochemical. From the text:
DHA is capable of inhibiting cutaneous 5-alpha-reductase, the enzyme responsible for the production of di-hydro-testosterone. Treatment with 0.1% of DHA and treatment with 0.5% of DHA reduced by about 70% and about 90%, respectively, the 5-alpha-reductase activity compared to an untreated control. This inhibition results in a considerable reduction of the sebum level.

For assay [2], the system named is collagenase. Nature of the assay: Anticollagenase activity on frozen sections of human skin (picrosirius staining). In kind it is biochemical. Also on record: key to Alteration of the collagen structure: 0: An absence of alteration of the collagen structure; 1: somewhat; 2: markedly to very strongly altered collagen structure. The note with it: for Alteration of the collagen structure: frozen human skin sections, 2 hours at 37° C.; for inhibition of the activity of collagenase: collagenase 30 U/ml. Here is the method:
This example was performed with different solutions at concentrations of 1 and 2% of active principles in comparison with the excipient alone, buffer controls and collagenase. The active principles used were DHA, the 2-dimethylamino ethyl ester of trans-10-hydroxy-2-decenoic acid (ML40) and the glycerol ester of trans-10-hydroxy-2-decenoic acid (GM).
Frozen 5-μm-thick sections from a mammary plasty of a person were placed on histological slides (4 sections per slide). Each solution was tested on one slide.
The sections were covered with the solutions to be tested then incubated for 2 hours at 37° C. in a humid chamber. The solutions were eliminated by repeated rinsings and the sections were stained with picrosirius. Microscopic examination was performed with the 2.5 objective and paper photographs were taken with Kodak Gold 100 ASA film.
Table 2 summarizes the results of alteration of the collagen structure as a function of the tested solution. An absence of alteration of the collagen structure is indicated by 0 while a somewhat or markedly to very strongly altered collagen structure is indicated, respectively, by 1 or 2.

A further assay concerns adipose tissue explants. Nature of the assay: Lipolytic activity on adipose tissue explants ex vivo (lipids released in culture medium, TLC; histology). The format is cell-based. The method, then:
DHA was incorporated in the culture medium at a final concentration of 0.25 and 0.5%. After 8 days of contact, the activity was evaluated by quantitative determination of the lipids distributed in the culture medium.
Twelve adipose tissue explants (plasty P202-AB31) were prepared and placed in survival state in BEM medium (BIO-EC's Explants Medium). The explants were distributed in 4 lots of 3 explants:
one positive control lot (caffeine at 0.1%),
two product lots (DHA at 0.25 and 0.5%).
On Day 0, the explants were placed in survival state in 2 ml of culture medium, in which the product to be tested was incorporated.
This treatment was renewed on Day 2, Day 4 and Day 6.
On Day 2, Day 4, Day 6 and Day 8, the culture medium was collected. For each explant, the media collected on Day 2, Day 4, Day 6 and Day 8 were grouped together in the same tube and preserved at −20° C. for quantitative determination of the lipids.
On Day 8, the adipose tissue explants were collected and fixed in ordinary Bouin's fixative for the histological study.
The fixed adipose tissue explants were dehydrated, impregnated with paraffin, but in block form, sectioned and stained with Masson's trichrome.
After extraction of the culture medium, the lipids were separated and quantitatively determined by TLC.
The viability and morphology of the adipocytes was monitored by the histologic study.
The lipolytic activity was evaluated by analysis of the proportions of monoglycerides, diglycerides, triglycerides and free fatty acids.
The results are expressed in mass (μg) of each category of lipid released in the culture medium during the 8 days of treatment.
Table 5 below represents the statistical analysis using Student's test of the results of the quantitative determination of the fatty acids released in the culture medium during the 8 days of treatment.

The subject of assay [3] is collagenase. Nature of the assay: Anticollagenase activity on human skin explants maintained in survival state. In kind it is cell-based. The method, then: The study was performed on a 5% GM product in comparison with the excipient (hydrocerin), a positive control and a control in the presence of collagenase at 100 U/ml.
Hydrocerin was used as the excipient for the preparation of the product to be applied. This study was performed twice. […] In the second study, the study time was extended and the collection of the explants was performed on Day 2 and on Day 4.
Human skin explants prepared and distributed into 16 lots of three explants each were placed in survival state according to Table 3.
The product was applied on Day 0 and on Day 2 at the rate of 20 mg per explant and collagenase was incorporated into the culture medium of the […].
Three explants of each lot were collected on Day 2 and on Day 4, fixed in ordinary Bouin's fixative and subjected to histological processing.
The histological study comprised:
impregnation in paraffin,
staining with Sirius red F3B,
calorimetric measurements of the collagen by image analysis,
comparison with photographs.
For this reason, the survival, the contact and the application were extended to Day 4. The collagenase action was monitored in two ways: intensity of the coloration of the collagen network and thickness of the dermal structure. With this study, penetration of the active principle and its inhibitory activity were correlated in relation to collagenase.

Setting [4] is: 1% active principle + collagenase 30 U/ml.
The mark [5] stands for this setting: 1% active principle, no collagenase.
Where [6] appears, read: 2% active principle + collagenase 30 U/ml.
Setting [7] is: 2% active principle, no collagenase.
Where [8] appears, read: DHA at 0.25%, 8 days of treatment.
The mark [9] stands for this setting: DHA at 0.5%, 8 days of treatment.
Where [10] appears, read: caffeine 0.1%, 8 days of treatment.
Where [11] appears, read: product containing 5% of GM in hydrocerin, 20 mg per explant on Day 0 and Day 2, collagenase 100 U/ml, Day 4.

For the compound `O=C(O)/C=C/CCCCCCCO` [DHA, trans-10-hydroxy-2-decenoic acid], the figures for the “reduction of 5-alpha-reductase activity compared to an untreated control” value in assay [1] (treatment with 0.1% of DHA) and in assay [1] (treatment with 0.5% of DHA) were “about 70%” and “about 90%”, respectively. The “Alteration of the collagen structure” value with collagenase [2] (setting [4]), in the assay with collagenase [2] (setting [5]), in the assay with collagenase [2] (setting [6]) and in the assay on collagenase [2] (setting [7]) was 0 throughout. Besides, the “inhibition of the activity of collagenase” value (“inhibition” below) in the assay with collagenase [2] (1%) and with collagenase [2] (2%) was “inhibited completely” each time. Moreover, the “lipolytic activity (Student's test)” value with adipose tissue explants (DHA applied at 0.25%) and with adipose tissue explants (DHA applied at 0.5%) was “significant lipolytic activity” throughout. For the same compound, the “% augmentation/Control of fatty acids released” value (“% augmentation/Control” below) is 1075% and 1075.6% in the assay with adipose tissue explants (setting [8]); 1087% and 1086.8% with adipose tissue explants (setting [9]). The “Diglycerides released in the culture medium, Mean” value with adipose tissue explants (setting [8]) and with adipose tissue explants (setting [9]) was 0.00 µg each time. Moreover, the “Fatty acids released in the culture medium, Mean” value was found to be 11.42 µg in the assay on adipose tissue explants (setting [8]) and 11.53 µg with adipose tissue explants (setting [9]). The entries for the “Monoglycerides released in the culture medium, Mean” value in the assay on adipose tissue explants (setting [8]) and in the assay on adipose tissue explants (setting [9]) were 3.64 µg and 7.06 µg, respectively. For the same compound, the “Triglycerides released in the culture medium, Mean” value in the assay with adipose tissue explants (setting [8]) worked out at 156.15 µg; in the assay with adipose tissue explants (setting [9]) it was 202.56 µg. Also, the “fatty acids released in the culture medium, individual explants” value was 9.95 µg and 11.67 µg and 12.66 µg in the assay on adipose tissue explants (setting [8]); 12.81 µg and 11.64 µg and 10.14 µg in the assay on adipose tissue explants (setting [9]). In addition, in the assay on adipose tissue explants (adipose tissue explants, 8 days), the “maximum effective dose (lipolytic effect)” value is roughly 0.25%.
As to `Cn1c(=O)c2c(ncn2C)n(C)c1=O` [Caffeine, caffeine, reference compound], in the assay on adipose tissue explants (setting [10]), the “% augmentation/Control” value was 2780.6%; the “Diglycerides released in the culture medium, Mean” value stood at 0.02 µg; the “Fatty acids released in the culture medium, Mean” value is 27.99 µg; the “Monoglycerides released in the culture medium, Mean” value was 1.22 µg. In addition, in the assay on adipose tissue explants (setting [10]), the “Triglycerides released in the culture medium, Mean” value came to 197.34 µg; the “fatty acids released in the culture medium, individual explants” value is 33.89 µg and 24.10 µg and 25.97 µg. For the same compound, the “% augmentation/Control” value with adipose tissue explants (caffeine 0.1%, 8 days of treatment, listed as caffeine) came to 2780%. In addition, in the assay on adipose tissue explants (caffeine at 0.1%, 8 days of treatment), the “augmentation factor of fatty acids released compared to the untreated control” value is reported as “about 29”.
On to `O=C(/C=C/CCCCCCCO)OCC(O)CO` (stereo not drawn) [GM, glycerol ester of trans-10-hydroxy-2-decenoic acid], for which the “Alteration of the collagen structure” value in the assay on collagenase [2] (setting [4]) was determined as 2; with collagenase [2] (setting [5]), 0; in the assay with collagenase [2] (setting [6]), 1; in the assay on collagenase [2] (setting [7]) it was 0. Also, the “inhibition” value in the assay on collagenase [2] (2%) is on record as “only slightly inhibited”. Also, the anticollagenase activity entry with collagenase [3] (5% GM product, human skin explants, collagenase 100 U/ml) is “pronounced anticollagenase activity”. In addition, the “degradation of the collagen bundles” value with collagenase [3] (setting [11]) is “very slightly degraded”. Also, the “thickness of the dermis” value in the assay with collagenase [3] (setting [11]) was “diminished slightly”.
In the case of `c1cnc2c(c1)ccc1cccnc12` [phenanthroline, reference compound], the dermal structure result in the assay with collagenase [3] (positive control + collagenase 100 U/ml, Day 4) is “the same as that of the controls without collagenase”.
Regarding `CN(C)CCOC(=O)/C=C/CCCCCCCO` [ML40, 2-dimethylamino ethyl ester of trans-10-hydroxy-2-decenoic acid], the “Alteration of the collagen structure” value stood at 2 with collagenase [2] (setting [4]), 0 in the assay on collagenase [2] (setting [5]), 1 in the assay with collagenase [2] (setting [6]) and 0 in the assay with collagenase [2] (setting [7]). Besides, the “inhibition” value with collagenase [2] (2%) was “only slightly inhibited”.
